Test results: paper PMC7503464 (Molecules, 2020)

Tests used:
Test in all cases: biochemical
[1] = biological target: T1, dihydrofolate reductase (DHFR; wt-DHFR and midW mutants) (Escherichia coli, UniProt P0ABQ4, W133F/W22F/W30F/W47F)
T1 construct: gene folA
Source text: (§1) isothermal titration calorimetry on dihydrofolate reductase (DHFR; wt-DHFR and midW mutants)

[2] = biological target: T2, dihydrofolate reductase (DHFR; wt-DHFR and midW mutants) (Escherichia coli, UniProt P0ABQ4, W133F/W22F/W30F/W74F)
T2 construct: gene folA
Source text: as §1

[3] = biological target: T3, dihydrofolate reductase (DHFR; wt-DHFR and midW mutants) (Escherichia coli, UniProt P0ABQ4, W133F/W22F/W47F/W74F)
T3 construct: gene folA
Source text: as §1

[4] = biological target: T4, dihydrofolate reductase (DHFR; wt-DHFR and midW mutants) (Escherichia coli, UniProt P0ABQ4, W133F/W30F/W47F/W74F)
T4 construct: gene folA
Source text: as §1

[5] = biological target: T5, dihydrofolate reductase (DHFR; wt-DHFR and midW mutants) (Escherichia coli, UniProt P0ABQ4, W22F/W30F/W47F/W74F)
T5 construct: gene folA
Source text: as §1

Nc1nc2ncc(CNc3ccc(C(=O)N[C@@H](CCC(=O)O)C(=O)O)cc3)nc2c(=O)[nH]1 [folate]
Kd [1]: 8.4 µM | Kd [2]: 12 µM | Kd [3]: 4.5 µM | Kd [4]: 3.7 µM | Kd [5]: 9.5 µM
